In patent US20260258035A1, “FIVE-MEMBERED AND SIX-MEMBERED NITROGEN-CONTAINING COMPOUND, AND INTERMEDIATE, PREPARATION METHOD AND USE THEREOF” (HANGZHOU SYNRX THERAPEUTICS BIOMEDICAL TECHNOLOGY CO., LTD., priority 2022, published 2026):
Read-outs that look alike come from different tables or passages of the source.

Assays:
PXR = biological target: T1, PXR (Homo sapiens, UniProt O75469); assay: PXR assay (DPX2 luciferase reporter cells); format: cell-based; details: 24 h; for PXR Activation @30 uM (% Ctrl): positive control rifampicin
T1 construct: host or cells: DPX2 (HepG2)
T1 sequence (O75469 1-434): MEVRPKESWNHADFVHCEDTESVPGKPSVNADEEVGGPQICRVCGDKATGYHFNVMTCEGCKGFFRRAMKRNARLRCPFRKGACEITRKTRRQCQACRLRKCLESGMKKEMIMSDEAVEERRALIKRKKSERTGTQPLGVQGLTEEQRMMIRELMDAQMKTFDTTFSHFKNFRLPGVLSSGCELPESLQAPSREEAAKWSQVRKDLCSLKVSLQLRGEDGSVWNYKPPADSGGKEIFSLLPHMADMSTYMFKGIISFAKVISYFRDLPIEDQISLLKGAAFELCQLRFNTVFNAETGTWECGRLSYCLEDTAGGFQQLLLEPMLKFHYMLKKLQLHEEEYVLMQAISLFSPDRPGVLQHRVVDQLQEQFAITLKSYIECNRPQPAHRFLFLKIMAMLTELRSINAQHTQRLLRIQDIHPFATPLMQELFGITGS
Outline: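 DPX2 cells (HepG2 stably carrying human PXR plus luciferase reporter) dosed 24 h with compound at 10, 1, 0.1 μM or 30–0.1 μM for EC50, 0.1% DMSO. Viability by CellTiter-Fluor (ex 400/em 505 nm), then ONE-Glo luciferase luminescence for PXR activation.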

HCC1806 = assay: Cell viability assay (CellTiter-Glo); format: cell-based, Human; details: HCC1806, 7 days, CellTiter-Glo, read-out: IC50 (nM) in cell viability assay

PXR Activation @30 uM (Fold) (PXR)	PXR Activation @30 uM (% Ctrl) (PXR)	IC50 (HCC1806) [nM]	IC50 (HCC1806; Homo sapiens, HCC1806, 168 h) [nM]	Structure (SMILES)
5.0	34	290	< 500	CC(C)C(=O)N1CCN(c2cc(S(=O)(=O)NC3(C#N)CC3)cn3c(-c4nnc(C(F)(F)F)s4)ncc23)CC1 [Example 167, N-(1-cyanocyclopropyl)-8-(4-isobutyrylpiperazin-1-yl)-3-(5-(trifluoromethyl)-1,3,4-thiadiazol-2-yl)imidazo[1,5-a]pyridine-6-sulfonamide]
2.7	19	–	–	CC(C)C(=O)N1CCN(c2cc(S(=O)(=O)NC3(C#N)CC3)cn3c(-c4nnc(C(F)F)s4)ncc23)CC1 [Example 32, N-(1-cyanocyclopropyl)-3-(5-(difluoromethyl)-1,3,4-thiadiazol-2-yl)-8-(4-isobutyrylpiperazin-1-yl)imidazo[1,5-a]pyridine-6-sulfonamide]
